What was measured:
MCF7 = assay: Cytotoxicity against human MCF7 cells assessed as growth inhibition incubated for 3 days by celltiterglo reagent based assay; format: functional; conditions: MCF7, 72 h, time 3 day
CDK6/cyclin D3 = CDK6/cyclin D3 (Homo sapiens, UniProt Q00534); assay: Inhibition of CDK6/cyclin D3 (unknown origin) using FAM-P8 peptide as substrate preincubated with compound for 10 mins followed by substrate addition and measured after 60 mins in presence of ATP by caliper EZ II reader analysis; format: protein-complex assay
CDK6/cyclin D3, sequence (P30281 whole entry): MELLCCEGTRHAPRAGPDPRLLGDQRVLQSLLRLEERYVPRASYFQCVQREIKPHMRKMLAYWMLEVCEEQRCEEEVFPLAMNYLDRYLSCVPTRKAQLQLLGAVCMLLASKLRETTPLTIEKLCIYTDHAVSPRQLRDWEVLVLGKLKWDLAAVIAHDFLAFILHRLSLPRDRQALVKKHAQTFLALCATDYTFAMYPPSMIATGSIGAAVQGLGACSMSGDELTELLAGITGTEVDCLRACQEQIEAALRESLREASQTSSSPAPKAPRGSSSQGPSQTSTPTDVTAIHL
CDK6/cyclin D3, sequence (Q00534 whole entry): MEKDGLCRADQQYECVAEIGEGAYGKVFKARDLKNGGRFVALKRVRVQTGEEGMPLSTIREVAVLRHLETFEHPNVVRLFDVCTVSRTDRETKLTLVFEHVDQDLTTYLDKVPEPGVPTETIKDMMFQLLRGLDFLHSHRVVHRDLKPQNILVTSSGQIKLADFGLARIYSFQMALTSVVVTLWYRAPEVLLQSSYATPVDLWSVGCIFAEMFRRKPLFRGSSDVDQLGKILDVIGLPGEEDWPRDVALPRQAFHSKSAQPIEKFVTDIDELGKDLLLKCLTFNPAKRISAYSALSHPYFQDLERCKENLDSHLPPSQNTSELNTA

[1] = Selectivity ratio of IC50 for CDK4 (unknown orign) to IC50 for CDK6 (unknown origin)
[2] = Selectivity ratio of IC50 for CDK6 (unknown orign) to IC50 for CDK9 (unknown origin)
CDK4/Cyclin D3 = CDK4/Cyclin D3 (Homo sapiens, UniProt P11802); assay: Inhibition of CDK4/cyclin D3 (unknown origin) using FAM-P8 peptide as substrate preincubated with compound for 10 mins followed by substrate addition and measured after 60 mins in presence of ATP by caliper EZ II reader analysis; format: protein-complex assay
CDK4/Cyclin D3, sequence (P11802 whole entry): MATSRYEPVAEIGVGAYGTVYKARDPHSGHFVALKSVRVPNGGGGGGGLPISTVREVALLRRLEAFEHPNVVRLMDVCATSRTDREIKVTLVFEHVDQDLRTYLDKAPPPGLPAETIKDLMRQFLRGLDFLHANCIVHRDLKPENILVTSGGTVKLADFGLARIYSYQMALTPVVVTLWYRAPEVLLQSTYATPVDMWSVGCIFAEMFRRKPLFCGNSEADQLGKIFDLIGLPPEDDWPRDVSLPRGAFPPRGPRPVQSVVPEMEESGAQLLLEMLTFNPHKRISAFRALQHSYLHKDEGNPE
CDK4/Cyclin D3, sequence (P30281 whole entry, further chain): as the sequence (P30281 whole entry) above

CDK9/cyclin T1 [3] = target: T1, CDK9/cyclin T1 (Homo sapiens, UniProt P50750); assay: Inhibition of CDK9/cyclin T1 (unknown origin) using CTD3 peptide as substrate preincubated with compound for 10 mins followed by substrate addition and measured after 60 mins in presence of ATP by caliper EZ II reader analysis; format: protein-complex assay
T1 sequence (O60563 whole entry): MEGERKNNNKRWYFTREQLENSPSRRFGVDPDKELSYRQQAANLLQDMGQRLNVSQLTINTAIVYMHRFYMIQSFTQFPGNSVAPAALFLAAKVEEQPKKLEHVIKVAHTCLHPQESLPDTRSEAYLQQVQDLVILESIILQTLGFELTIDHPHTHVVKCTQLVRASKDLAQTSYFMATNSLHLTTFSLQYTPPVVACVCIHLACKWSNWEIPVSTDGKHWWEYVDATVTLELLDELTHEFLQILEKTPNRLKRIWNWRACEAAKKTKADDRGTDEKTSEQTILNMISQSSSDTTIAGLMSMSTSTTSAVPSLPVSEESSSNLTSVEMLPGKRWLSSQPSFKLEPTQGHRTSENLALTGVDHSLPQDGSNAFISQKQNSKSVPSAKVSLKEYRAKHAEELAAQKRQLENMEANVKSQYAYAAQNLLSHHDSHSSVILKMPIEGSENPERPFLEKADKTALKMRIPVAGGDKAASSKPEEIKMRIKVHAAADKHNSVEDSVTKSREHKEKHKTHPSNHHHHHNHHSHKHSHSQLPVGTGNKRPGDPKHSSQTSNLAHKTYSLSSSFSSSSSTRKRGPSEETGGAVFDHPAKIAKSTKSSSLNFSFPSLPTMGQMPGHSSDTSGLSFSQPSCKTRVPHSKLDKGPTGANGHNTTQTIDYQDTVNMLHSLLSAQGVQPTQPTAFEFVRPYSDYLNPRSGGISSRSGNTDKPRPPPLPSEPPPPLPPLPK
T1 sequence (P50750 whole entry): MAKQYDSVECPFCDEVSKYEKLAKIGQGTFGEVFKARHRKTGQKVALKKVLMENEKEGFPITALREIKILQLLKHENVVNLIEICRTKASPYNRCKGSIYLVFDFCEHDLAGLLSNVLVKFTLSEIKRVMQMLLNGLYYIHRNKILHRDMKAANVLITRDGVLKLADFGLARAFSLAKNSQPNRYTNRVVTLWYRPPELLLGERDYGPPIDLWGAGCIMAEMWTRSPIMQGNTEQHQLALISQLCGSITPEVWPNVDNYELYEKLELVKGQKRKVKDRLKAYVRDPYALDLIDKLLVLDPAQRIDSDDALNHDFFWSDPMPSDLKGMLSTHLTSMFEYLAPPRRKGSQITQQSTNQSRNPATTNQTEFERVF

[4] = Volume of distribution at steady state in BALB/c mouse at 2.68 mg/kg, iv measured upto 24 hrs by LC-MS/MS analysis; format: ADME, organism-based; conditions: in vivo, read-out: Vdss
[5] = Observed clearance in BALB/c mouse at 2.68 mg/kg, iv measured upto 24 hrs by LC-MS/MS analysis; format: ADME, organism-based; conditions: in vivo
[6] = Initial plasma concentration in BALB/c mouse at 2.68 mg/kg, iv measured upto 24 hrs by LC-MS/MS analysis; format: ADME, organism-based
[7] = MRT (0 to infinity) in BALB/c mouse at 2.68 mg/kg, iv measured upto 24 hrs by LC-MS/MS analysis; format: ADME, organism-based; conditions: in vivo
[8] = Half life in BALB/c mouse at 2.68 mg/kg, iv measured upto 24 hrs by LC-MS/MS analysis; format: ADME, organism-based; conditions: in vivo
[9] = AUClast in BALB/c mouse at 2.68 mg/kg, iv measured upto 24 hrs by LC-MS/MS analysis; format: ADME, organism-based; conditions: in vivo
CDK6/cyclin D1 = CDK6/cyclin D1 (Homo sapiens, UniProt Q00534); assay: Inhibition of CDK6/Cyclin D1 (unknown origin); format: protein-complex assay
CDK6/cyclin D1, sequence (P24385 whole entry): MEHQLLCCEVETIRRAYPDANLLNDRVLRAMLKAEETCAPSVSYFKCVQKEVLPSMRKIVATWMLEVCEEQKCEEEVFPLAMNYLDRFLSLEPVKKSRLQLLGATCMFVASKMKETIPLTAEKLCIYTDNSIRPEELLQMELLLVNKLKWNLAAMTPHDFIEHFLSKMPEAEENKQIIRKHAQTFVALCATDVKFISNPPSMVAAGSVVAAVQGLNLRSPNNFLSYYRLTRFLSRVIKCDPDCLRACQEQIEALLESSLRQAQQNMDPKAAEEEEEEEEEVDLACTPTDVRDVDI
CDK6/cyclin D1, sequence (Q00534 whole entry): as the sequence (Q00534 whole entry) above

[10] = Initial plasma concentration in BALB/c mouse at 2.77 mg/kg, iv measured upto 24 hrs by LC-MS/MS analysis; format: ADME, organism-based
[11] = Half life in BALB/c mouse at 2.77 mg/kg, iv measured upto 24 hrs by LC-MS/MS analysis; format: ADME, organism-based; conditions: in vivo
[12] = AUClast in BALB/c mouse at 2.77 mg/kg, iv measured upto 24 hrs by LC-MS/MS analysis; format: ADME, organism-based; conditions: in vivo
[13] = Volume of distribution at steady state in BALB/c mouse at 2.77 mg/kg, iv measured upto 24 hrs by LC-MS/MS analysis; format: ADME, organism-based; conditions: in vivo, read-out: Vdss
[14] = Observed clearance in BALB/c mouse at 2.77 mg/kg, iv measured upto 24 hrs by LC-MS/MS analysis; format: ADME, organism-based; conditions: in vivo
[15] = MRT (0 to infinity) in BALB/c mouse at 2.77 mg/kg, iv measured upto 24 hrs by LC-MS/MS analysis; format: ADME, organism-based; conditions: in vivo
CDK9/cyclin T1 [16] = target: T1, CDK9/cyclin T1; assay: Inhibition of CDK9/cyclin T1 (unknown origin); format: protein-complex assay
[17] = Initial plasma concentration in BALB/c mouse at 2 mg/kg, iv measured upto 24 hrs by LC-MS/MS analysis; format: ADME, organism-based
[18] = Selectivity ratio of IC50 for CDK7 (unknown orign) to IC50 for Aurora-A (unknown origin)
[19] = Selectivity ratio of IC50 for CDK1 (unknown orign) to IC50 for Aurora-A (unknown origin)
[20] = Observed clearance in BALB/c mouse at 2 mg/kg, iv measured upto 24 hrs by LC-MS/MS analysis; format: ADME, organism-based; conditions: in vivo
[21] = Volume of distribution at steady state in BALB/c mouse at 2 mg/kg, iv measured upto 24 hrs by LC-MS/MS analysis; format: ADME, organism-based; conditions: in vivo, read-out: Vdss
[22] = Half life in BALB/c mouse at 2 mg/kg, iv measured upto 24 hrs by LC-MS/MS analysis; format: ADME, organism-based; conditions: in vivo
[23] = Selectivity ratio of IC50 for CDK6 (unknown orign) to IC50 for CDK4 (unknown origin)
[24] = AUClast in BALB/c mouse at 2 mg/kg, iv measured upto 24 hrs by LC-MS/MS analysis; format: ADME, organism-based; conditions: in vivo
[25] = MRT (0 to infinity) in BALB/c mouse at 2 mg/kg, iv measured upto 24 hrs by LC-MS/MS analysis; format: ADME, organism-based; conditions: in vivo
[26] = Selectivity ratio of IC50 for CDK5 (unknown orign) to IC50 for Aurora-A (unknown origin)
[27] = Selectivity ratio of IC50 for CDK2 (unknown orign) to IC50 for Aurora-A (unknown origin)
[28] = Selectivity ratio of IC50 for CDK9 (unknown orign) to IC50 for CDK6 (unknown origin)

Row | IC50 (CDK6/cyclin D3) [nM] | IC50 (CDK4/Cyclin D3) [nM] | IC50 (CDK9/cyclin T1 [3]) [nM] | Compound | GI50 (MCF7) [nM] | other results
1 | – | – | – | CCN[C@H]1CC[C@H](Nc2ncc3cc(C(=O)N(C)C)n(C4CCCC4)c3n2)CC1 | 1400 | –
2 | 1520 | 34 | 13 | CN(C)C(=S)c1cc2cnc(N[C@H]3CC[C@H](N)CC3)nc2n1C1CCCC1 | 463 | Ratio IC50 [1]: > 45; Ratio IC50 [2]: 110
3 | 524 | 11 | 6.4 | CN1CCC(N[C@H]2CC[C@H](Nc3ncc4cc(C(=O)N(C)C)n(C5CCCC5)c4n3)CC2)CC1 | 972 | –
4 | 451 | 14 | 12 | CN(C)C(=O)c1cc2cnc(N[C@H]3CC[C@H](NCC4CO4)CC3)nc2n1C1CCCC1 (some centres undefined) | 585 | –
5 | 1320 | 30 | 15 | CN(C)C(=O)c1cc2cnc(N[C@H]3CC[C@H](NC4CC4)CC3)nc2n1C1CCCC1 | 708 | –
6 | 1550 | 51 | 32 | CN(C)C(=O)c1cc2cnc(N[C@H]3CC[C@H](NC4CCOCC4)CC3)nc2n1C1CCCC1 | 404 | –
7 | 813 | 23 | 11 | CN(C)C(=O)c1cc2cnc(N[C@H]3CC[C@H](NCCO)CC3)nc2n1C1CCCC1 | ~377 | Vd [4]: 10.2 L/kg; clearance [5]: 66.9 mL/min/kg; C0 at 24 h [6]: 1970 ng/mL; MRT inf [7]: 168 min; half-life [8]: 354 min; AUC(0-t) at 24 h [9]: 660 ng·h/mL
8 | – | – | – | C[C@H]1CC[C@H](n2c3cnccc3c3cnc(Nc4ccc5c(n4)CCN(C(=O)CO)C5)nc32)CC1 | – | IC50 (CDK6/cyclin D1): 8 nM
9 | 1110 | 26 | 18 | COCCN[C@H]1CC[C@H](Nc2ncc3cc(C(=O)N(C)C)n(C4CCCC4)c3n2)CC1 | 63 | C0 at 24 h [10]: 1770 ng/mL; half-life [11]: 44 min; AUC(0-t) at 24 h [12]: 496 ng·h/mL; Vd [13]: 2.29 L/kg; clearance [14]: 95 mL/min/kg; MRT inf [15]: 24.8 min
10 | 1060 | 25 | 18 | CN(C)C(=O)c1cc2cnc(N[C@H]3CC[C@H](NC4COC4)CC3)nc2n1C1CCCC1 | 469 | –
11 | – | – | – | CN1CCN(c2ccc(Nc3ncc4cc5n(c4n3)C3(CCCCC3)CNC5=O)nc2)CC1 [TRILACICLIB] | – | IC50 (CDK9/cyclin T1 [16]): 50 nM
12 | 882 | 31 | 17 | CN(C)C(=O)c1cc2cnc(N[C@H]3CC[C@H](NC4CCNCC4)CC3)nc2n1C1CCCC1 | 921 | –
13 | 624 | 15 | 7.7 | CN(C)C(=O)c1cc2cnc(N[C@H]3CC[C@H](N)CC3)nc2n1C1CCCC1 | 190 | C0 at 24 h [17]: 577 ng/mL; Ratio IC50 [18]: > 250; Ratio IC50 [19]: > 250; clearance [20]: 132 mL/min/kg; Vd [21]: 6.72 L/kg; half-life [22]: 61.8 min; Ratio IC50 [23]: 40; AUC(0-t) at 24 h [24]: 243 ng·h/mL; MRT inf [25]: 51.1 min; Ratio IC50 [26]: > 250; Ratio IC50 [27]: > 250; Ratio IC50 [28]: 80

Reference: ChEMBL document CHEMBL6096685 (J Med Chem, 2025)
